Reference: patent publication US20250262297A1, “ALLERGY ANTIGEN AND EPITOPE THEREOF” (HOYU CO., LTD., priority 2017, published 2025)

Assays:
Type in all cases: binding, human
[1] = system: IgE antibody from one patient having allergies to a soybean, a peach and an apple; assay: ELISA of biotinylated peptides, study on cross-reactivity; conditions: FIG. 6
Protocol: The binding activity of peptides comprising the amino acid sequences of SEQ ID NOS: 871, 984 and 985 against an IgE antibody from one patient having allergies to a soybean, a peach and an apple was confirmed by ELISA. The peptides were synthesized such that the peptides were N-terminally biotinylated by the Fmoc method.
To be specific, ELISA was carried out according to the following procedure. • (1) The concentrations of the biotinylated peptides were adjusted to 1 μg/mL with PBST. • (2) Each peptide solution was added at 40 μL to each well of a 384-well plate coated with streptavidin, and shaken at room temperature for one hour. After collection of the solution, the wells were washed with PBS five times. • (3) A 1:5 dilution of Blocking one (diluted with MQ) was added at 40 μL thereto and shaken at room temperature for 15 minutes. After removal of the solution, the wells were washed with PBS five times. • (4) A diluted serum solution (1:10, diluting solution: Blocking one produced by Nacalai Tesque, Inc.) was added at 40 μL thereto and shaken at room temperature for one hour. After removal of the solution, the wells were washed with PBS five times. • (5) A diluted secondary antibody solution (1:5000, diluting solution: Blocking one produced by Nacalai Tesque, Inc.) was added at 40 μL thereto and shaken at room temperature for one hour. […] Absorbance at 450 nm was measured.

[2] = system: IgE antibody present in the serum of a patient allergic to a soybean; assay: Epitope mapping and overlapping peptide fragments on SPOT membrane, immunoblotting; conditions: procedure of (B), overlapping
Protocol: Epitope mapping was carried out using a library of overlapping peptide fragments (length: 15 amino acids) corresponding to the sequences of proteins bound patient-specifically to IgE antibodies in serum, which were obtained as a result of 2D-western of soybeans.
The peptides to be synthesized were shifted by 10 amino acids.
For preparation of peptide arrays, peptide synthesis of interest was carried out in incremental steps on a modified cellulose membrane by the Intavis SPOT synthesis technique, which is a technique of synthesizing peptides of interest through 9-fluorenylmethoxycarbonyl (Fmoc) chemical reaction, using an automated synthesis apparatus (Intavis MultiPep RS). […]
The presence or absence of binding, to each peptide fragment, of an IgE antibody present in the serum of a patient allergic to a soybean was measured by immunoblotting using the membrane on which the peptide fragments were synthesized by SPOT. […]
Thereafter, for the sequences of peptides bound patient-specifically to IgE antibodies in serum in the epitope mapping described above in (A), a library of overlapping peptide fragments (length: 10 amino acids) was obtained as sequences having the sequences of these peptides as well as additional sequences subsequent to the peptides in the amino acid sequences of antigen proteins on which the epitopes were detected. […]

[3] = system: IgE antibodies from soybean-allergic patients; assay: Immunoblotting of two-dimensional electrophoresis pattern of soybean proteins with patient serum; conditions: spot in 2D electrophoresis gel of soybean proteins; patient serum compared with healthy subject serum
Excerpt: Transfer to membrane was done using the following transfer system and transfer buffer. • Transfer system: XCell SureLock Mini-Cell and XCell II Blot Module (produced by Life Technologies) • Transfer buffer: NuPAGE Transfer Buffer (X20) (produced by Life Technologies), used in a form diluted 20-fold with milliQ water.
To be specific, proteins in the two-dimensional electrophoresis gels were transferred to a membrane (PVDF membrane) according to the following procedure. • (1) The PVDF membrane was immersed in 100% methanol followed by milliQ water, and then moved into the transfer buffer to hydrophilize the PVDF membrane. • (2) After sponge, filter paper, the gels treated by second-dimensional SDS-PAGE, the hydrophilized PVDF membrane, filter paper, and sponge were put in place in this order, the transfer system was energized at a constant voltage of 30 V for one hour.
Immunoblotting of the membrane was carried out using, as a primary antibody, a serum sample from a patient with a soybean allergy or a serum sample from a healthy subject.
Immunoblotting of the membrane was carried out according to the following procedure. • (1) The transferred membrane was shaken in a 5% skim milk/PBST solution (a PBS buffer containing 0.3% Tween 20 nonionic surfactant) at room temperature for one hour. • (2) The membrane was left to stand in a solution of 3% primary antibody serum in 5% skim milk/PBST at room temperature for one hour. • (3) The membrane was washed with a PBST solution (5 min.×3 times). • (4) The membrane was left to stand in a 1:2500 dilution of the secondary antibody, anti-human IgE-HRP (horseradish peroxidase), with a 3% skim milk/PBST solution at room temperature for one hour. • (5) The membrane was washed with a PBST solution (5 min.×3 times). • (6) The membrane was left to stand in Pierce Western Blotting Substrate Plus (produced by Thermo Fisher Scientific) for 5 minutes.
The membrane obtained through the foregoing series of treatments was subjected to fluorescent image scanning on Typhoon 9400 (produced by GE).
The immunoblots obtained with the serum from the soybean-allergic patient were compared with those obtained with the control serum from the healthy subject.

Row | Substance | specific binding to IgE antibodies from soybean-allergic patients [3] | further results
1 | SEQ ID NO: 871: amino acids 1-15 of SEQ ID NO: 495 (seed biotin-containing protein SBP65-like isoform X1) (MASEQMPRRENNSNR; epitope) |  | binding to IgE antibody from the allergic patient compared with IgE antibody from a healthy subject [1]: bound more strongly; binding activity against the IgE antibody from the patient ([1]; peptide 1 μg/mL, serum 1:10, absorbance at 450 nm): exhibited binding activity; identified as epitope (common sequence of peptides bound to IgE antibodies from allergic patients) [2]: identified as epitopes
2 | UTP-glucose-1-phosphate uridylyltransferase [Spot 15α] | specific binding | 
3 | elongation factor 1-alpha [Spot 35α] | specific binding | 
4 | embryo-specific urease isoform X1 [Spot 4α] | specific binding | 
5 | glyceraldehyde-3-phosphate dehydrogenase isoform X1 [Spot 29α] | specific binding | 
6 | heat shock cognate protein 80 [Spot 2α] | specific binding | 
7 | lysine-tRNA ligase, cytoplasmic-like isoform X2 [Spot 9α] | specific binding | 
8 | methionine synthase [Spot 7α] | specific binding | 
9 | pyrophosphate-fructose 6-phosphate 1-phosphotransferase subunit alpha-like [Spot 12α] | specific binding | 
10 | seed biotin-containing protein SBP65-like isoform X1 [Spot 38α] | specific binding | 
